Experimental data taken from US20250319032A1, “PHARMACEUTICAL COMPOSITIONS OF RIBOCICLIB” (Novartis AG, priority 2024, published 2025).
Blank lines part the entries; values can stand above or below the molecule they belong to.

Columns and labels:
[1] = DMP433 (N-nitroso-ribociclib) content in ribociclib base (B10) and ribociclib succinate (B12, drug substance) batches and process experiments, LC-MS/MS or HPLC-HRMS; type: physicochemical; details: for DMP433 [ppm] LOQ (0.0625 ppm) / DMP433 [ppm], result in brackets (extrapolation, estimate of actual value below LOQ): ribociclib base (LEE011 B10); for DMP433 (LOQ: 30 ppb): LEE011-B10, laboratory scale 30 g experiments; for DMP433 in LEE011 B12: laboratory scale salt formation; for DMP433 in LEE011-B12 (IP): nitrite in IPA 1.6 ppb; for DMP433 [ppm]: laboratory use test, salt formation B10 to B12 with filter parts added (filter per experiment), AS&T LJ LC-MS/MS
Source text: The method of testing for the presence and/or total amount of nitrosamines (such as the presence and/or total amount of N-nitroso-ribociclib in free or salt form) that is used in the methods of the invention may be any method which allows for the detection of nitrosamines in a composition. For example, the method may involve the Griess test described above. In such a method, the nitrosamines may be first denitrosated (e.g., by photolysis) to form a nitrite, which is then detected in the Griess test. Alternatively, the method may include high performance liquid chromatography (HPLC)- and/or gas chromatography (GC)-mass spectroscopy. An example of a method of testing for the presence and amount of nitrosamines (namely N-nitroso-ribociclib) is provided herein as Example 14. […]
2.7. […] Dissolve the substance using vortex and fill to volume with solvent (50% MeOH). • 3. Filter through 0.2 μm PVDF (polyvinylidene difluoride) or PTFE (polytetrafluoroethylene) filter into a HPLC amber vial, discard the first 0.5 ml.
A calibration curve for DMP433 is created, using calibration standard solutions L1-L6, and expressing the relationship between responses (peak areas) and standard concentrations (ng/ml). For L1, the average of 6 injections is used. Linear regression is weighed with 1/amount. […]

[2] = Nitrite content (ion chromatography; LC-FLD with DAN derivatisation; Griess test) in drug substance, intermediates, reagents, solvents, filters, excipients; type: physicochemical; details: for Nitrite (LOQ: 0.1 ppm) / Nitrite, value in brackets below LOQ: LEE011-B10, laboratory scale 30 g experiments; for Nitrite in LEE011 B12: laboratory scale salt formation
Source text: The method of testing for the presence and/or total amount of nitrites that is used in the methods of the invention may be any method which allows for the detection and/or quantitation of nitrites in a composition. For example, the method may be the Griess test. The Griess test allows for the detection and analysis of nitrite by the formation of a red-pink colour upon treatment of a nitrite-containing sample with the Griess reagent. The Griess reagent consists of two components in an acidic solution: an aniline derivative and a coupling agent. The most common arrangements use sulfanilamide and N-(1-naphthyl)ethylenediamine. For example 0.2% N-(1-naphthyl)ethylenediamine dihydrochloride and 2% sulfanilamide in 5% phosphoric acid may be used as a Griess reagent. Other aniline derivatives that may be used in a Griess reagent include sulfanilic acid, nitroaniline, and p-aminoacetophenone.
The Griess test involves two subsequent reactions, as shown in the scheme below. When the aniline derivative (e.g., sulfanilamide) is added, the nitrite ion reacts with it in the Griess diazotization reaction to form a diazonium salt, which then reacts with N-(1-naphthyl)ethylenediamine in an azo-coupling reaction, forming a pink-red azo-dye. Using a spectrophotometer, the nitrite concentration can then be quantitatively detected.
Additionally purified water; e.g. Milli Q • 2.
• 10 mM KH2PO4 Weigh accurately about 1.361 g of KH2PO4 into a 1 L volumetric flask, dissolve it in approximately 950 mL of additionally purified water and adjust the pH to 8.0 (with 2.7 M NaOH). Make up to the mark with additionally purified water. • 0.62 M HCl Add a few millilitres (e.g. 20 mL) of additionally purified water to a 200 mL volumetric flask, add 10.280 mL of concentrated HCl, mix and make up to the mark with additionally purified water. • 2.7 M NaOH Weigh accurately about 1.092 g of NaOH pellets into a 10 mL volumetric flask and dissolve it in additionally purified water. Cool to room temperature and make up to the mark with the same solvent. • Reagent DAN Weigh accurately about 5 mg of 2,3-diaminophthalene into a 100 mL volumetric flask and dissolve it with the solvent (methanol/water 1:1 (v/v)). Dilute up to the mark and ensure visual full dissolution. Use an amberglass flask. • Mobile phase A Mix 950 mL of 10 mM KH2PO4 solution (pH=8) and add 50 mL methanol. • Mobile phase B Methanol. • Solvent Methanol/water 1:1 (v/v), e.g. mix 2000 mL of additionally purified water and 2000 mL methanol.
• Instrument: HPLC with FLR detector; e.g. Waters Arc or equivalent • Column: C18 50×4.6 mm, 2.5 μm, e.g. XBridge C18 2.5 μm, 4.650 mm or equivalent
• Notes It is recommended to wear additional protective equipment (face mask and gloves) during weighing. • It is recommended to wash the column with 50% methanol after the analysis (example of preparation: mix 500 mL methanol and 500 m1 of additionally purified water). • It is recommended to rinse the injector with solvent after each injection. • All glassware and tools should be rinsed with additionally purified water before use. It is not recommended to leave the solutions open for a longer time before measurement. • Blank solution 1 Transfer 1 mL of solvent into a HPLC vial and perform derivatization as described below. • Blank solution 2 Transfer 10 mL of solvent into a single use glass vial and mix it on a magnetic stirrer for 30 min. Transfer the solution into a 5 mL centrifuge tube and centrifuge for 10 min at 12000 rpm. […] Fill up to the mark with solvent and mix. • (Cnitrite≈0.0005 mg/mL) • Comparison solution Transfer 10 mL of nitrite stock solution into a 500 mL volumetric flask. • (2 parallels) Fill up to the mark with solvent and mix. • Transfer 1 mL solution into a HPLC vial and perform the derivatization as described below. • (Cnitrite≈100 ppb) • Sample solution Accurately weigh about 1000 mg of the sample into a glass vial for single use and add 10 mL of solvent.

[3] = ribociclib base (LEE011 B10), ion chromatography
[4] = additional batches of ribociclib base LEE011-B10 (IP-1)
[5] = nitrite in iPrOH <5 ppb (1.3 ppb extrapolated)
[6] = nitrite in iPrOH <5 ppb (3.1 ppb extrapolated)
[7] = laboratory use test, salt formation B10 to B12 with filter parts added, QLS LJ LC-FLD/DAN

DMP433 [ppm] [1]: 0.530 ppm | Nitrite [ppm] [2, 7]: app. 0.6 ppm
Structure (SMILES): CN(C)C(=O)c1cc2cnc(Nc3ccc(N4CCNCC4)cn3)nc2n1C1CCCC1.O=C(O)CCC(=O)O [LEE011-cusakan1-050]

DMP433 (ppm) in B10 ([1]; B10 batches on commercial scale, potassium carbonate of different nitrite level): 0.05 ppm | Nitrite [ppm] ([2]; in B10 batches on commercial scale, potassium carbonate of different nitrite level): 0.1 ppm
Structure (SMILES): CN(C)C(=O)c1cc2cnc(Nc3ccc(N4CCNCC4)cn3)nc2n1C1CCCC1 [LEE011-B10 24003]

DMP433 [ppm] LOQ (0.0625 ppm) [1]: LOQ | DMP433 [ppm], result in brackets (extrapolation, estimate of actual value below LOQ) [1]: 0.043 ppm
Structure (SMILES): CN(C)C(=O)c1cc2cnc(Nc3ccc(N4CCNCC4)cn3)nc2n1C1CCCC1 [Batch B0705466]

DMP433 [ppm] LOQ (0.0625 ppm) [1]: LOQ | DMP433 [ppm], result in brackets (extrapolation, estimate of actual value below LOQ) [1]: 0.005 ppm
Structure (SMILES): CN(C)C(=O)c1cc2cnc(Nc3ccc(N4CCNCC4)cn3)nc2n1C1CCCC1 [Batch B704194]

DMP433 [ppm] [1]: 1.661 ppm | Nitrite [ppm] [2, 7]: app. 0.2 ppm
Structure (SMILES): CN(C)C(=O)c1cc2cnc(Nc3ccc(N4CCNCC4)cn3)nc2n1C1CCCC1.O=C(O)CCC(=O)O [LEE011-cusakal1-035]

DMP433 [ppm] [1]: 1.272 ppm | Nitrite [ppm] [2, 7]: app. 0.3 ppm
Structure (SMILES): CN(C)C(=O)c1cc2cnc(Nc3ccc(N4CCNCC4)cn3)nc2n1C1CCCC1.O=C(O)CCC(=O)O [LEE011-cusakal1-033]

N-nitroso-ribociclib ([1]; starting material used for technical batch NV1900): 0.21 ppm
Structure (SMILES): CN(C)C(=O)c1cc2cnc(Nc3ccc(N4CCNCC4)cn3)nc2n1C1CCCC1.O=C(O)CCC(=O)O [Batch B728969]

Further lines, the molecule ahead of its results:

Structure (SMILES): CN(C)C(=O)c1cc2cnc(Nc3ccc(N4CCNCC4)cn3)nc2n1C1CCCC1 [Batch 923037A002]
DMP433 [ppm] LOQ (0.0625 ppm) [1]: LOQ | DMP433 [ppm], result in brackets (extrapolation, estimate of actual value below LOQ) [1]: 0.047 ppm | Nitrite [ppm] LOD (1 ppm) [2, 3]: <LOD

Structure (SMILES): CN(C)C(=O)c1cc2cnc(Nc3ccc(N4CCNCC4)cn3)nc2n1C1CCCC1 [Batch 805193A096]
DMP433 (LOQ: 30 ppb) [1]: 70.5 ppb | Nitrite (LOQ: 0.1 ppm) [2]: < 0.1 ppm | Nitrite, value in brackets below LOQ [2]: 0.05 ppm

Structure (SMILES): CN(C)C(=O)c1cc2cnc(Nc3ccc(N4CCNCC4)cn3)nc2n1C1CCCC1 [Batch 805193A078]
DMP433 in LEE011-B10 ([1]; B10 starting material of resin experiments): DMP433: 92 ppb | DMP433 [ppb] [1, 4]: 78 ppb | DMP433 in LEE011 B12 ([1]; nitrite in iPrOH 119.6 ppb): 14238 ppb | DMP433 in LEE011 B12 ([1]; nitrite in iPrOH 162.7 ppb): 18011 ppb | DMP433 in LEE011 B12 [1, 5]: 995 ppb | DMP433 in LEE011 B12 [1, 6]: 1513 ppb | DMP433 in LEE011-B12 (IP) ([1]; resin treatment of B10/IPA solution): 220 ppb | DMP433 in LEE011-B12 (IP) ([1]; resin treatment only IPA (nitrite carryover from B10 remained)): 528 ppb | Nitrite [ppm] LOD (1 ppm) [2, 4]: <LOD | Nitrite in LEE011 B12 [2, 5]: 448 ppb | Nitrite in LEE011 B12 [2, 6]: 326 ppb

Structure (SMILES): CN(C)C(=O)c1cc2cnc(Nc3ccc(N4CCNCC4)cn3)nc2n1C1CCCC1 [Batch 805193A095]
DMP433 (LOQ: 30 ppb) [1]: 55.8 ppb | Nitrite (LOQ: 0.1 ppm) [2]: < 0.1 ppm | Nitrite, value in brackets below LOQ [2]: 0.08 ppm

Structure (SMILES): CN(C)C(=O)c1cc2cnc(Nc3ccc(N4CCNCC4)cn3)nc2n1C1CCCC1 [Batch 805193A072]
DMP433 [ppm] LOQ (0.0625 ppm) [1]: LOQ | DMP433 [ppm], result in brackets (extrapolation, estimate of actual value below LOQ) [1]: 0.060 ppm | Nitrite [ppm] LOD (1 ppm) [2, 3]: <LOD

Structure (SMILES): CN(C)C(=O)c1cc2cnc(Nc3ccc(N4CCNCC4)cn3)nc2n1C1CCCC1 [Batch 805193A074]
DMP433 [ppm] LOQ (0.0625 ppm) [1]: LOQ | DMP433 [ppm], result in brackets (extrapolation, estimate of actual value below LOQ) [1]: 0.029 ppm | Nitrite [ppm] LOD (1 ppm) [2, 3]: <LOD
